Source: patent US20160235642A1, “Melanin Binding Agents for Targeted Topical Delivery” (AVON PRODUCTS, INC, priority 2013, published 2016)

Tested on: not listed separately
Experiment: Binding of compounds to free synthetic melanin (Example 3)
Conditions: free synthetic melanin 50 μg/mL, compound 10 μM in PBS, 37° C., 1 hour; relative percentage of compound bound, measured spectrophotometrically from compound left in solution
Protocol: Free synthetic melanin was incubated with compounds of interest in order to determine relative binding affinity of various compounds of interest to melanin. Free synthetic melanin (50 μg/mL) and compounds of interest at 10 μM concentration in PBS were incubated at 37° C. for 1 hour. After 1 hour, the synthetic melanin was removed from the solution, and the relative concentrations of the compound left in solution (i.e., not bound to the melanin) were measured spectrophometrically.

Row | Compound | % Melanin Bound
1 | OCC[n+]1ccccc1.[Cl-] [1-(2-Hydroxyethyl) pyridinium chloride] | 0%
2 | Nc1cnc2ccccc2c1 [3-Aminoquinoline] | 5.1%
3 | CCCCCCCCCCCC[n+]1ccc(N)cc1.[Cl-] [4-Amino-1-dodecyl-pyridinium chloride] | 49.5%
4 | Cn1c(=O)c2c(ncn2C)n(C)c1=O [Caffeine] | 4.4%
5 | CCN(CC)CCCC(C)Nc1ccnc2cc(Cl)ccc12 (stereo not shown) [Chloroquine] | 48.6%
6 | O=CC[C@@H](O)[C@H](O)[C@H](O)CO [Deoxy-d-glucose] | Not detected
7 | O=C(O)c1cc(O)c(O)c(O)c1 [Gallic acid] | 0%
8 | c1ccc2[nH]ccc2c1 [Indole] | 7.3%
9 | NC(=O)c1cccnc1 [Niacinamide] | 0%
10 | Cl.c1ccncc1 [Pyridine hydrochloride] | 0%
11 | Oc1ccccc1O [Pyrocatechol] | 21.5%
12 | Oc1cccc(O)c1O [Pyrogallol] | Not detected

Other lines, results leading:

Row | % Melanin Bound | Compound
13 | 0% | CCCC[n+]1ccccc1.[Cl-] [1-Butylpyridinium chloride]
14 | 6.5% | OCCc1c[nH]c2ccccc12 [3-(2-Hydroxyethyl)indole]
15 | 0% | O=C(O)/C=C/c1ccc(O)c(O)c1 [Caffeic acid]
16 | Not detected | CCCCCCCCCCCCOC(=O)CCSCCC(=O)OCCCCCCCCCCCC [Dilauryl Thiodipropionate]
17 | Not detected | CC1COC(=O)O1 (stereo not shown) [Propylene Carbonate]
18 | 99.7% | O=c1c(O)c(-c2ccc(O)c(O)c2)oc2cc(O)cc(O)c12 [Quercetin]
19 | 1.5% | O=C(O)CCSCCC(=O)O [Thiodipropanoic Acid]

Tested on: Melanoderm Mel-B (high concentration of melanin) and Melanoderm Mel-C (low concentration of melanin) tissue models
Experiment: Affinity of pyridinium compounds for melanin in Melanoderm tissue models (Example 2)
Format: cell-based
Conditions: Melanoderm tissue models; 1 μM and 10 μM
Source text: Affinity of pyridinium compounds for melanin in Melanoderm Mel-B (high concentration of melanin) and Melanoderm Mel-C (low concentration of melanin) tissue models.
Melanoderm Mel-B (high concentration of melanin) and Melanoderm Mel-C (low concentration of melanin) tissue models were used to determine the affinity of pyridinium compounds for melanin. Chloroquine served as a positive control and caffeic acid was a negative control for melanin binding. […] Test materials were topically applied at 0, 24 and 48 hours and tested at 1 μM and 10 μM concentration in water. Media samples were collected at 6, 24, 48, and 72 hours and tissue were lysed at 72 hours.

Row | Compound | melanin binding compared with the positive control (chloroquine)
20 | CCCCCCCCCCCC[n+]1ccc(N)cc1.[Cl-] [4-Amino-1-dodecyl-pyridinium chloride] | outperformed the positive control

Same assay, conditions: Melanoderm tissue models; 10 μM versus 1 μM

Row | Compound | melanin binding, 10 μM compared to 1 μM concentration
21 | CCCCCCCCCCCC[n+]1ccc(N)cc1.[Cl-] [4-Amino-1-dodecyl-pyridinium chloride] | increased melanin binding

Same assay, conditions: topically applied at 0, 24 and 48 hours, 1 μM and 10 μM in water; media at 6, 24, 48, 72 hours, tissue lysed at 72 hours; FIG. 1

Row | Compound | binding affinity for the 3-D tissue samples
22 | CCCCCCCCCCCC[n+]1ccc(N)cc1.[Cl-] [4-Amino-1-dodecyl-pyridinium chloride] | strong binding affinity
